From PMC11272821, “Mechanistic safety assessment via multi-omic characterisation of systemic pathway perturbations following in vivo MAT2A inhibition” (Archives of Toxicology, 2024)

How the values were obtained:
[1] = tested on: rat liver transcriptome; assay: Liver transcriptomics; assay type: in vivo
Description: Total RNA was purified from liver samples with RNAdvance Tissue™ kit by Beckman Coulter Life Sciences according to manufacturer’s instructions. The method was carried out in an automated robotic solution with Biomek i7 Hybrid™. The concentration and quality of isolated RNA molecules were measured applying parallel capillary electrophoresis using Agilent Fragment Analyzer 5300 (DNF-471-33-SS Total RNA 15nt). The data were analysed in ProSize data analysis software to derive the concentration and RNA quality numbers (RQN) for individual samples.
The double-stranded cDNA obtained with Poly (A)-mRNA enrichment (500 ng total RNA input) was subjected to library preparation using KAPA Hyper Prep Kit (Kapa Biosystems, MA, USA) according to manufacturer’s protocol. The libraries were pooled in a single library and were sequenced on an Illumina NovaSeq6000 with a v1.5 SP 100 cycle kit as paired-end reads to PE51bp. The sequencing runs were carried out according to the manufacturer’s instructions.

[2] = tested on: HCT116 MTAP KO cells; assay: HCT116 cell SAM assay, MTAP KO; assay type: cell-based
Description: The structure and in vitro properties of the compound are shown in Table 1 together with potency in the HCT116 isogenic cell line (MTAP WT and KO) and in the MAT2A biochemical assay (SAM endpoint).

[3] = tested on: methionine; assay: Targeted LC–MS of methionine in plasma, liver, brain and heart; assay type: in vivo, rat; conditions: 30 mg/kg BID
Description: SAM and methionine levels were quantified in plasma samples and tissues using Ultra Performance Liquid Chromatography (UPLC) coupled with quantitative MS in ESI positive ion mode as described in Supplementary M&M.
For LCMS analysis, standard curves were spiked to give a calibrated range of 1.0 – 1000 nM for SAM and 1.0 – 2000 for methionine. 5 µL of standard spike solution was added to 45 µL of ACN/MeOH/H2O (40/40/20 v/v/v) and 2.5 µL of deuterated citrulline is added as an internal standard. A further calibration curve was prepared with 5 µL blank mouse plasma, 5 µL of standard and 40 µL of 40:40:20 Acetonitrile:Methanol:0.5% formic acid (Aq) with 2.5 µL of deuterated citrulline was used to investigate matrix suppression effects. Blank plasma was also diluted 1:10 with ACN/MeOH/H2O (40/40/20 v/v/v) and was also analysed to establish systemic biomarker levels.
Metabolomic sample preparation and analysis. Tissue samples (liver, brain, heart) were extracted with 1 mL of ACN/MeOH/H2O 40/40/20 v/v/v per 100 mg material in a PrecellysCK28K-2 mL tube. Tissues were homogenised/extracted in 3x20 sec shake at 5500 rpm and centrifuged for 5 min at 10,621g. After centrifugation a maximum of 800 µL clear supernatant was transferred to cryovials and the same amount of extraction solvent used in the first step was added to tissue precipitate. Extraction procedure was repeated as above and clear supernatants combined in the same cryovial and vial labelled as polar metabolite extract. On the remaining tissue pellet 1ml (per100mg tissue material) of Butanol/MeOH 3/1v/v was added and the above extraction sequence applied. Resulted clear supernatant transferred to a clean cryovial and labelled as lipid extract. All samples kept at the lowest available temperature (0 °C) throughout the extraction process and stored at -80 °C until further analysis.

[4] = target: T1, A1 adenosine receptor (Homo sapiens, UniProt P30542); assay: Cell based functional assay; conditions: mode of action ND
T1 construct: purchased Eurofins
Description: (§1) Secondary pharmacology assays were performed at Eurofins using standard experimental techniques against a total of 86 targets across a broad pharmacological space. Assay details along with experimental protocols are described at https://www.eurofinsdiscoveryservices.com. […] Assays measuring substrate turnover or phosphorylation by isolated proteins were used for kinase and enzyme targets, allowing direct determination of the mode of action of the compounds. […] Assays were run in eight points concentration response mode with half log dilutions and IC50, EC50 or Ki (Cheng and Prusoff [1973]) values determined.

[5] = target: T2, α1B adrenoceptor (Homo sapiens, UniProt P35368); assay: Cell based functional assay
T2 construct: Eurofins
T2 sequence (P35368 1-520): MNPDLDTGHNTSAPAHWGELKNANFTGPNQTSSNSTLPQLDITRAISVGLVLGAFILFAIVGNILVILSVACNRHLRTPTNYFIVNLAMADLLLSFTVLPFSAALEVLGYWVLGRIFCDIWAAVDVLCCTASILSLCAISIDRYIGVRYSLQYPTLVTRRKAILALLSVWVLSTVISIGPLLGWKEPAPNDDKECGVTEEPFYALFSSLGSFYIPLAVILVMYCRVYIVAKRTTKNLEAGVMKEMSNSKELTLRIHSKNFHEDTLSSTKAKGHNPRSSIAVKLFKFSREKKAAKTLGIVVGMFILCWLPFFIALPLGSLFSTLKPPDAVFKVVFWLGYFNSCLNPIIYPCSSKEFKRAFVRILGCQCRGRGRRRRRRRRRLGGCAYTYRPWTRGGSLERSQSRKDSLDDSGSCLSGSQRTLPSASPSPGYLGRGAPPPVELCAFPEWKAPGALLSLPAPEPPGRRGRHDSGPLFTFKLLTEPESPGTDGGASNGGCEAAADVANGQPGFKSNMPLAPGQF
Description: as §1

[6] = target: T3, 5-HT7 receptor (Homo sapiens, UniProt P34969); assay: Cell based functional assay
T3 construct: Eurofins
Description: as §1

[7] = target: T4, CB1 cannabinoid receptor (Homo sapiens, UniProt P21554); assay: Cell based functional assay; conditions: mode of action ND
T4 construct: purchased Eurofins
Description: as §1

[8] = target: T5, A2A adenosine receptor (Homo sapiens, UniProt P29274); assay: Cell based functional assay; conditions: mode of action ND
T5 construct: Eurofins
Description: as §1

[9] = target: T6, M2 muscarinic receptor (Homo sapiens, UniProt P08172); assay: Cell based functional assay
T6 construct: Eurofins
T6 sequence (P08172 1-466): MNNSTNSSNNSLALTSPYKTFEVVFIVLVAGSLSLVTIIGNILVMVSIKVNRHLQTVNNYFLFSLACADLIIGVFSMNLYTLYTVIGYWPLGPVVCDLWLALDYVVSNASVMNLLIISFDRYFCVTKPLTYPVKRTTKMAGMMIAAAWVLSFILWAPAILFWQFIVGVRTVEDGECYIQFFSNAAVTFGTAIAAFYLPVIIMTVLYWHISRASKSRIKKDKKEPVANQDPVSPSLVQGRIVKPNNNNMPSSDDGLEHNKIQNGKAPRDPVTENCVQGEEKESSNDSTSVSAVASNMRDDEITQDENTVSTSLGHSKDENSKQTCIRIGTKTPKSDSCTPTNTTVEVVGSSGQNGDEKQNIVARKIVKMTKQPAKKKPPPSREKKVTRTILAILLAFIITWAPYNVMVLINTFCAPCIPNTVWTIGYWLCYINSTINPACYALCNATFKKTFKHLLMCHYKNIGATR
Description: as §1

[10] = Antagonist, read-out: Functional IC50 or EC50

T3 sequence (P34969 whole entry): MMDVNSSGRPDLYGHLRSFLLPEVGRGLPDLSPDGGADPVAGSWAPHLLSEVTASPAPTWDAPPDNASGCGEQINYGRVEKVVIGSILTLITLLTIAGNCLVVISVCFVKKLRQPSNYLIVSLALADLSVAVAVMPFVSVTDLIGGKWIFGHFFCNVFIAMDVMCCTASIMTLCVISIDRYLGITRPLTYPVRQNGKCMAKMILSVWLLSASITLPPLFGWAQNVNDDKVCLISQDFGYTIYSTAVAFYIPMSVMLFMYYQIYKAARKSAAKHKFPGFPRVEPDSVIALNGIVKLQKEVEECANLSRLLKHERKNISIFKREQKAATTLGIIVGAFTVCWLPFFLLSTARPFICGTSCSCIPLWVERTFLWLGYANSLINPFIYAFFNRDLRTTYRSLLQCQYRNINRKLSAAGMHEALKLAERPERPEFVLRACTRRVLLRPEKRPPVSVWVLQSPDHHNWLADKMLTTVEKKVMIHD
T4 sequence (P21554 whole entry): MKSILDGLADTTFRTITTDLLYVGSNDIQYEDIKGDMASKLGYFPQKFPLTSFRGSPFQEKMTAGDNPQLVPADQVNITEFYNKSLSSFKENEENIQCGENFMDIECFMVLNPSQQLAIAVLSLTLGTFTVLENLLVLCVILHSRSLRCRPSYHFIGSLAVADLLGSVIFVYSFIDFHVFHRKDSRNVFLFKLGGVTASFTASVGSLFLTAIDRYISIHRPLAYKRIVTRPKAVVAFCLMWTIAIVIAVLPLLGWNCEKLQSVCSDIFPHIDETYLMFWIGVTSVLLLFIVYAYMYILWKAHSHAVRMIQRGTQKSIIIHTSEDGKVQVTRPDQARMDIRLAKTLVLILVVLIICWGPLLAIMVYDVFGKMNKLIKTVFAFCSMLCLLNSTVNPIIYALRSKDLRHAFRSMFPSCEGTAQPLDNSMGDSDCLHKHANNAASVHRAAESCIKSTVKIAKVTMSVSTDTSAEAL
T1 sequence (P30542 whole entry): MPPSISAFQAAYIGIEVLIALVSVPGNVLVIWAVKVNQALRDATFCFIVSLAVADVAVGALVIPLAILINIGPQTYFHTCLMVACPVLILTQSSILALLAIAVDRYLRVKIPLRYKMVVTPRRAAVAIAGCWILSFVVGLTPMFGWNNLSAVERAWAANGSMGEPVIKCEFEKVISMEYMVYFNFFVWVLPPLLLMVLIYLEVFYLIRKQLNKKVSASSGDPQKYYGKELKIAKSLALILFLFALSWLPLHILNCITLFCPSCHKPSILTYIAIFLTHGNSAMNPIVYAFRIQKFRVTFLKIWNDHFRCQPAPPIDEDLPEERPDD
T5 sequence (P29274 whole entry): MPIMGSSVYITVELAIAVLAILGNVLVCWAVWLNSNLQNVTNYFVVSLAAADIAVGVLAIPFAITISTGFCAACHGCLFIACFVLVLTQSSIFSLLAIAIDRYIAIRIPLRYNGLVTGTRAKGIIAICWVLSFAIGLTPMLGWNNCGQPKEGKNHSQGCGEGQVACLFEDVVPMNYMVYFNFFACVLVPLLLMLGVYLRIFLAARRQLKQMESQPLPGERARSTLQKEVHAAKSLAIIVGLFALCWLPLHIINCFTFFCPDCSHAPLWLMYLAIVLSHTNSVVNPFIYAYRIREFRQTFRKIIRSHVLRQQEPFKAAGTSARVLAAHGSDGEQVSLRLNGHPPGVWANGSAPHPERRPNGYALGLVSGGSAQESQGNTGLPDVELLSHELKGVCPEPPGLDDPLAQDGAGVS

Compound: Cn1cc2cc(-c3cc4[nH]nc(C5CC5)c4n(-c4ccc(OC(F)F)cc4)c3=O)ccc2n1 [AZ’9567]
- differentially expressed liver genes ([1]; high dose (30 mg/kg BID)): 1638
- differentially expressed liver genes ([1]; low dose (3 mg/kg BID)): 2080
- HCT116 cell SAM MTAP KO pIC50 [2]: 8.9
- Brain Methionine % Control [3]: 1835 % Control
- Heart Methionine % Control [3]: 1316 % Control
- Liver Methionine % Control [3]: 2314 % Control
- Plasma Methionine % Control [3]: 1557 % Control
- Functional IC50 or EC50 [4]: >30.1 µM
- Pharmacological mode of action [5]: Antagonist
- IC50 [5, 10]: 28.9 µM
- Pharmacological mode of action [6]: Antagonist
- IC50 [6, 10]: 2.9 µM
- Functional IC50 or EC50 [7]: >100 µM
- Functional IC50 or EC50 [8]: >100 µM
- Pharmacological mode of action [9]: Antagonist
- IC50 [9, 10]: 17.1 µM
